Laboratory results from publication PMC12475274, “Harnessing indole scaffolds to identify small-molecule IRE1α inhibitors modulating XBP1 mRNA splicing” (Nature Communications, 2025).
Values joined by “and” are separate entries in the source; they are usually repeats but may differ in a detail not shown here. Equal values may be shown once. Read-outs that look alike come from different tables or passages of the source. One block for each molecule: values may come before it.

Assays:
[1] = molecular target: T1, dephosphorylated IRE1α (547–977) (Homo sapiens, UniProt O75460); assay: FRET-based IRE1α RNase activity assay, dephosphorylated IRE1α; format: biochemical
T1 construct: Human IRE1α kinase and RNase domain (residues 547–977) was subcloned into pLIB plasmid; His tag (with TEV cleavage site) (N, cleaved yes); made in house; host or cells: Sf9 insect cells, baculovirus (Bac-to-Bac)
Method: (§1) Human IRE1α kinase and RNase domain (residues 547–977) was subcloned into pLIB plasmid with a His tag and TEV cleavage site, and expressed using Bac-to-Bac expression system. The primers used are listed in Supplementary Table S3. The protein purification was performed following established procedures. Briefly, Sf9 cells were infected with baculovirus and incubated at 27 °C 110 rpm for 72 h. The cells were collected by centrifugation at 4000 × g for 15 min and the cell pellet was resuspended in lysis buffer (50 mM HEPES pH 7.5, 300 mM NaCl, 10% glycerol, 1 mM MgCl2, 1 mM TCEP, 5 mM imidazole), then supplemented with 1:10,000 benzonase (Sigma, E1014), 1 tablet/25 mL […]™ Protease Inhibitor Cocktail tablets (Sigma, S8830) and 1 mM PMSF before lysed by sonication at 4 °C. […] The protein elution was incubated with TEV protease to remove His tag at 4 °C overnight. Then the sample was diluted 1:6 in buffer (50 mM HEPES pH 7.5, 1 mM TCEP, 5% glycerol) and loaded onto a 5 mL pre-packaged Q HP anion exchange column (Cytiva, HiTrap Q HP) pre-equilibrated with QA buffer (50 mM HEPES pH 7.5, 50 mM NaCl, 1 mM TCEP, 5% glycerol). The unphosphorylated and phosphorylated protein was separated by eluting the protein with a very shallow gradient with 0-30% buffer QB (50 mM HEPES pH 7.5, 1 M NaCl, 1 mM TCEP, 5% glycerol) over 80 CV. Different peaks were collected separately and verified by LC-MS. The fully phosphorylated fraction was collected and further purified by size exclusion chromatography (Cytiva, HiLoad 16/600 Superdex 200 pg,) with SEC buffer (25 mM HEPES pH 7.5, 250 mM NaCl, 1 mM TCEP, 10% glycerol) and fractioned as monomeric peak. The rest protein fraction from the Q HP anion exchange column was incubated with Lambda protein phosphatase (New England BioLabs, P0753S) overnight at 4 °C, the dephosphorylation was confirmed by LC-MS. The unphosphorylated protein was further purified by size exclusion chromatography with the SEC buffer described above. The purified phosphorylated (p-IRE1α) and dephosphorylated (IRE1α) protein aliquots were stored at −80 °C for future usage.
The dual-labeled RNA substrate with a FAM at 5’ and the BHQ-1 at 3’ containing the XBP1 sequence (5′FAM-[…]-3′BHQ1) was purchased from Integrated DNA Technologies (IDT). The FRET-based IRE1α RNase activity assay was carried out in reaction buffer containing 20 mM HEPES pH 7.5, 50 mM KOAc, 1 mM MgOAc2, 1 mM DTT, 0.05% v/v TritonX-100, at a total reaction volume of 20 μL in a 384-well black plate (4514, Corning). For unphosphorylated IRE1α (IRE1α), a final concentration of 40 nM IRE1α protein and 100 nM RNA substrate was used. For phosphorylated IRE1 (p-IRE1α), a final concentration of 4 nM p-IRE1α protein and 200 nM RNA substrate was used. The indicated compound and IRE1α protein were incubated for 30 min at room temperature before the substrate was added to the reaction. The plate was then kinetically read over one hour at room temperature using a TECAN Spark plate reader. The measurement was carried out using the fluorescence top reading mode at the excitation wavelength of 485 nm and the emission wavelength of 535 nm with a 10 nm excitation and emission bandwidth. The linear part of the reaction curve was adopted and fitted with sample linear regression to obtain the slope, and the slope was adopted to reflect the reaction rate. The inhibition % was calculated by using the equation: inhibition% = 100 × (slope of DMSO control – slope of the sample)/(slope of DMSO control – slope of blank control), DMSO control: DMSO with protein and RNA substrate; Blank control: DMSO with RNA substrate. The IC50 values were calculated using the concentration-response model in GraphPad Prism 9. […]

[2] = molecular target: T2, phosphorylated IRE1α (p-IRE1α) (Homo sapiens, UniProt O75460); assay: FRET-based IRE1α RNase activity assay, phosphorylated IRE1α; format: biochemical
T2 construct: Human IRE1α kinase and RNase domain (residues 547–977) was subcloned into pLIB plasmid; His tag (with TEV cleavage site) (N, cleaved yes); made in house; host or cells: Sf9 insect cells, baculovirus (Bac-to-Bac)
Method: as §1
The dual-labeled RNA substrate with a FAM at 5’ and the BHQ-1 at 3’ containing the XBP1 sequence (5′FAM-[…]-3′BHQ1) was purchased from Integrated DNA Technologies (IDT). The FRET-based IRE1α RNase activity assay was carried out in reaction buffer containing 20 mM HEPES pH 7.5, 50 mM KOAc, 1 mM MgOAc2, 1 mM DTT, 0.05% v/v TritonX-100, at a total reaction volume of 20 μL in a 384-well black plate (4514, Corning). For unphosphorylated IRE1α (IRE1α), a final concentration of 40 nM IRE1α protein and 100 nM RNA substrate was used. For phosphorylated IRE1 (p-IRE1α), a final concentration of 4 nM p-IRE1α protein and 200 nM RNA substrate was used. The indicated compound and IRE1α protein were incubated for 30 min at room temperature before the substrate was added to the reaction. The plate was then kinetically read over one hour at room temperature using a TECAN Spark plate reader. The measurement was carried out using the fluorescence top reading mode at the excitation wavelength of 485 nm and the emission wavelength of 535 nm with a 10 nm excitation and emission bandwidth. The linear part of the reaction curve was adopted and fitted with sample linear regression to obtain the slope, and the slope was adopted to reflect the reaction rate. The inhibition % was calculated by using the equation: inhibition% = 100 × (slope of DMSO control – slope of the sample)/(slope of DMSO control – slope of blank control), DMSO control: DMSO with protein and RNA substrate; Blank control: DMSO with RNA substrate. The IC50 values were calculated using the concentration-response model in GraphPad Prism 9.

[3] = FRET assay, RNase activity, mean (± SEM), read-out: p-IRE1α IC50
[4] = FRET assay, source data, unit from Fig. 3, read-out: p-IRE1a IC50, individual replicates (n1-n4)
[5] = FRET assay, RNase activity, mean (± SEM), read-out: IRE1α IC50
[6] = FRET assay, source data, unit from Fig. 3 / sheet Fig. 2b, read-out: IRE1a IC50, individual replicates (n1-n4)
[7] = p-IRE1a, individual replicates (n1-n3), Supplementary Fig. 2b, 2c, read-out: IC50
[8] = p-IRE1a, mean, Supplementary Fig. 2b, 2c, read-out: IC50, mean
[9] = IRE1a, individual replicates (n1-n4), Supplementary Fig. 2b, 2c, read-out: IC50
[10] = IRE1a, mean, Supplementary Fig. 2b, 2c, read-out: IC50, mean
[11] = FRET assay, RNase activity, mean (± SEM)

T1 sequence (O75460 547-977): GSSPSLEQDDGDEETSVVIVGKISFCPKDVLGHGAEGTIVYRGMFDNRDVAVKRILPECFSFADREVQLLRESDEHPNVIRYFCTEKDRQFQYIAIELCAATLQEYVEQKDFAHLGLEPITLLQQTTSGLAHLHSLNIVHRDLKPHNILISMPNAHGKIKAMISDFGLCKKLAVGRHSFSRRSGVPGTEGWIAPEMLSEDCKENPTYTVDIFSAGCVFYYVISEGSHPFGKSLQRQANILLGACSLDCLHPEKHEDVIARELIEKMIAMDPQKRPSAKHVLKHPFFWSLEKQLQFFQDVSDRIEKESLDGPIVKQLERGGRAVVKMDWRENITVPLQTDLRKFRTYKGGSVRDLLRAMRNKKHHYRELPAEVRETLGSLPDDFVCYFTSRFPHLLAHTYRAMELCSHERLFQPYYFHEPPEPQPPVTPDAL
T2 sequence (O75460 547-977): as above

Structure (SMILES): O=C(O)Cc1c[nH]c2ccccc12 [auxin, reference compound]
IRE1α inhibition% ([1]; FRET assay at 50 μM, mean (± SEM)): ≤ 50%

Structure (SMILES): COc1ccc2c(c1)c(CCC(=O)O)c(C)n2C(=O)C1CCOCC1 [IA81]
IC50 [2, 3]: 5.61 µM and 5.6 µM
IC50 [2, 4]: 5.64 µM and 7.33 µM and 3.85 µM
IC50 [1, 5]: 2.04 µM
IC50 [1, 6]: 1.9 µM and 2.23 µM and 1.98 µM

Structure (SMILES): COc1ccc2c(c1)c(Cc1ccc(O)cc1)c(C)n2C(=O)c1ccc(Cl)cc1 [cms10]
inhibition at 50 µM ([2]; FRET assay at 50 μM, mean (± SEM), read-out: p-IRE1α inhibition%): < 30%
inhibition at 50 µM ([1]; FRET assay at 50 μM, mean (± SEM), read-out: IRE1α inhibition%): < 30%

Structure (SMILES): COc1ccc2c(c1)c(CCC(=O)O)c(C)n2C(=O)c1cccc(C(F)(F)F)c1 [IA36]
IC50 [2, 3]: 0.06 µM and 0.0561 µM
IC50 [2, 4]: 0.105 µM and 0.045 µM and 0.018 µM
IC50 [1, 5]: 0.1 µM
IC50 [1, 6]: 0.0398 µM and 0.135 µM and 0.138 µM

Structure (SMILES): Cc1c(CCC(=O)O)c2cc(Br)ccc2n1C(=O)C1CCCCC1 [IA165]
inhibition(%) ([2]; p-IRE1a, 0.000847 μM): -0.707% and 0.787% and -7.504% and -5.865%
inhibition(%) ([2]; p-IRE1a, 0.00254 μM): -6.491% and -3.358% and -4.226% and 3.246%
inhibition(%) ([2]; p-IRE1a, 0.007621 μM): -0.418% and -0.611% and -4.226% and 0.305%
inhibition(%) ([2]; p-IRE1a, 0.068587 μM): 0.450% and 2.715% and -3.792% and 0.305%
inhibition(%) ([2]; p-IRE1a, 0.205761 μM): 1.992% and 4.885% and 4.065% and 5.463%
inhibition at 1.85185 µM ([2]; p-IRE1a, 1.85185 μM): 34%
inhibition(%) ([2]; p-IRE1a, 1.85185 μM): 36.843% and 31.203% and 36.891%
inhibition at 5.55556 µM ([2]; p-IRE1a, 5.55556 μM): 58.9%
inhibition(%) ([2]; p-IRE1a, 5.55556 μM): 56.028% and 61.836% and 59.894%
inhibition at 16.6667 µM ([2]; p-IRE1a, 16.6667 μM): 90.7%
inhibition(%) ([2]; p-IRE1a, 16.6667 μM): 88.753% and 83.846% and 83.803%
inhibition(%) ([2]; p-IRE1a, 50 μM): 95.227% and 95.680% and 96.051%
inhibition at 50 µM ([2]; p-IRE1a, 50 μM, read-out: inhibition(%)): 94.7%
effect on IRE1α RNase activity in the FRET assay [1]: decreased the inhibitory activity
inhibition at 0.617284 µM ([1]; IRE1a, 0.617284 μM): 36.9%
inhibition(%) ([1]; IRE1a, 0.617284 μM): 46.932% and 53.398% and 47.875%
inhibition at 1.85185 µM ([1]; IRE1a, 1.85185 μM): 53.7%
inhibition(%) ([1]; IRE1a, 1.85185 μM): 60.820% and 65.775% and 59.822%
inhibition at 5.55556 µM ([1]; IRE1a, 5.55556 μM): 76%
inhibition(%) ([1]; IRE1a, 5.55556 μM): 76.919% and 67.673% and 77.366%
inhibition(%) ([1]; IRE1a, 16.6667 μM): 82.061% and 76.393% and 74.507%
inhibition at 16.6667 µM ([1]; IRE1a, 16.6667 μM, read-out: inhibition(%)): 75.9%
inhibition(%) ([1]; IRE1a, 50 μM): 53.077% and 49.468% and 70.447% and 68.706%

Structure (SMILES): COc1ccc2c(c1)c(CCC(=O)O)c(C)n2C(=O)N1CCOCC1 [IA77]
p-IRE1α IC50 [2, 11]: IC₅₀ not reached
IC50 [2, 3]: > 20 µM
IRE1α IC50 [1, 11]: IC₅₀ not reached
IC50 [1, 5]: > 20 µM

Structure (SMILES): Cc1c(CCC(=O)O)c2cc(-c3ccc(C(F)(F)F)cc3)ccc2n1C(=O)c1ccccc1 [IA145]
IC50 [2, 3]: 43.2 µM
IC50 [2, 4]: 40.7 µM and 46.9 µM and 42.1 µM
IC50 [1, 5]: 13.4 µM
IC50 [1, 6]: 14.1 µM and 14.2 µM and 11.9 µM

The remaining lines, values ahead:

IC50 [2, 7]: 0.168 µM and 0.0345 µM
IC50 [2, 8]: 0.1 µM
IC50 [1, 9]: 0.09 µM and 0.0912 µM and 0.0591 µM
IC50 [1, 10]: 0.08 µM
Structure (SMILES): Cc1c(CCC(=O)O)c2cc(Br)ccc2n1C(=O)c1cccs1 [IA44]

IC50 [2, 3]: 1.96 µM
IC50 [2, 4]: 2.09 µM and 2.1 µM and 1.67 µM
IC50 [1, 5]: 1.46 µM
IC50 [1, 6]: 0.869 µM and 1.33 µM and 2.17 µM
Structure (SMILES): COc1ccc2c(c1)c(CCC(=O)O)c(C)n2C(=O)c1ccc(Br)cc1 [IA02]

IC50 [2, 3]: 0.82 µM
IC50 [2, 4]: 1.59 µM and 0.458 µM and 0.394 µM
IC50 [1, 5]: 0.53 µM
IC50 [1, 6]: 0.337 µM and 1.04 µM and 0.203 µM
Structure (SMILES): COc1ccc2c(c1)c(CCC(=O)O)c(C)n2C(=O)c1ccccn1 [IA04]

IC50 [2, 7]: 5.26 µM and 7.8 µM and 3.64 µM
IC50 [2, 8]: 5.57 µM
IC50 [1, 9]: 4.7 µM and 0.983 µM and 3.62 µM and 1.97 µM
IC50 [1, 10]: 2.82 µM
Structure (SMILES): Cc1c(CCC(=O)O)c2cc(F)ccc2n1C(=O)c1cccc(C#N)c1 [IA47]
